Reference: patent US4950669A, “Methods and compositions for promoting growth of animals” (priority 1987, dated 1990)

What was measured:
[1] = 70-day lamb study, oral or i.m. injection (Example XVII); type: in vivo, lambs
Experimental: A 70-day study was conducted in which N-morpholinyl-β-benzoyl-propionamide was administered to lambs by i.m. injection or by admixture with feed. In the case of oral administration, the N-morpholinyl-β-benzoyl-propionamide was mixed with the complete mixed ration at a level of 30 ppm.

[2] = organ weight variations in the rat after per os treatment; type: in vivo; details: 300 mg/kg per os
[3] = battery study in chickens (Example XVI); type: in vivo; details: for Mortality: unmedicated 1.1
Experimental: A battery study was conducted in which N-morpholinyl-β-benzoyl-propionamide was administered to chickens in their feed at levels at 2.5 ppm and 5.0 ppm. The control group was unmedicated. Each medicated treatment had 10 replications of 8 birds per replication, with non-medicated controls having 20 replications of 8 birds per replication. Birds were weighed to determine weight gain and feed-to-gain ratio on days 7, 14 and 21.

[4] = 44-day floor pen study in chickens (Example XIV); type: in vivo
Experimental: A 44-day floor pen study was conducted in which n-morpholinyl-β-benzoyl-propionamide was administered in chicken feed at concentrations of 1 ppm, 2.5 ppm, 5 ppm, 10 ppm, 20 ppm, 40 ppm and 60 ppm. One group of controls received no medication in its feed, while a second control group received Bacitracin MD in its feed at 30 g/ton. Birds were fed ad libitum. There were 5 replications per treatment, 50 birds per replication. Birds were weighed to determine weight gain and feed-to-gain ration after 35 days and 44 days.

[5] = pig growth study, intramuscular injection (Example X); type: in vivo; details: pigs, 1 mg/kg i.m. every seven days
Experimental: N-morpholinyl-β-benzoylpropionamide (NMBP) was formulated as an injectable product at a concentration of 2% in polyethylene glycol. The formulation was administered to pigs by intramuscular injection at a dosage of 1 mg/kg, once every seven days. Pigs averaged 52.66 kg at initiation and were terminated at 90.8 kg. Control animals received no injections.

[6] = rabbit, in vivo, ip, 100 mg/kg
[7] = Injection, 1.5 mg/kg i.m. every 2 weeks
[8] = Injection, 1.5 mg/kg i.m. every 2 weeks, Day 0-14
[9] = Injection, 1.5 mg/kg i.m. every 2 weeks, Day 0-28
[10] = Injection, 1.5 mg/kg i.m. every 2 weeks, Day 0-42
[11] = Injection, 1.5 mg/kg i.m. every 2 weeks, Day 0-56
[12] = Injection, 1.5 mg/kg i.m. every 2 weeks, Day 0-70
[13] = Injection, 1.5 mg/kg i.m. every 2 weeks, Day 15-28
[14] = Injection, 1.5 mg/kg i.m. every 2 weeks, Day 29-42
[15] = Injection, 1.5 mg/kg i.m. every 2 weeks, Day 43-56
[16] = Injection, 1.5 mg/kg i.m. every 2 weeks, Day 57-70

SMILES: O=C(CCC(=O)N1CCOCC1)c1ccccc1 [NMBP, N-morpholinyl-β-benzoyl-propionamide]
- weight loss of one lamb ([1]; Injection group, during the previous 2-week period, sacrificed on Day 55): 10 pounds
- Necropsy of one lamb ([1]; Injection group, one lamb sacrificed on Day 55): chronic focal pneumonia
- Daily Gain, Period [1, 7]: .16 kilograms
- Weight, Final [1, 7]: 42.1 kilograms
- Weight, Initial ([1]; Injection, 1.5 mg/kg i.m. every 2 weeks (baseline)): 27.6 kilograms
- Daily Feed DM Consumption, Cumulative [1, 8]: 0.94 kilograms
- Daily Feed DM Consumption, Period [1, 8]: 0.94 kilograms
- Daily Gain, Cumulative [1, 8]: .23 kilograms
- Daily Gain, Period [1, 8]: .23 kilograms
- Feed DM/Gain, Cumulative [1, 8]: 4.09
- Feed DM/Gain, Period [1, 8]: 4.09
- Daily Feed DM Consumption, Cumulative [1, 9]: 1.00 kilograms
- Daily Gain, Cumulative [1, 9]: .22 kilograms
- Feed DM/Gain, Cumulative [1, 9]: 4.55
- Daily Feed DM Consumption, Cumulative [1, 10]: 1.05 kilograms
- Daily Gain, Cumulative [1, 10]: .22 kilograms
- Feed DM/Gain, Cumulative [1, 10]: 4.77
- Daily Feed DM Consumption, Cumulative [1, 11]: 1.06 kilograms
- Daily Gain, Cumulative [1, 11]: .22 kilograms
- Feed DM/Gain, Cumulative [1, 11]: 4.82
- Daily Feed DM Consumption, Cumulative [1, 12]: 1.11 kilograms
- Daily Gain, Cumulative [1, 12]: .21 kilograms
- Feed DM/Gain, Cumulative [1, 12]: 5.29
- Daily Feed DM Consumption, Period [1, 13]: 1.06 kilograms
- Daily Gain, Period [1, 13]: .21 kilograms
- Feed DM/Gain, Period [1, 13]: 5.05
- Daily Feed DM Consumption, Period [1, 14]: 1.14 kilograms
- Daily Gain, Period [1, 14]: .22 kilograms
- Feed DM/Gain, Period [1, 14]: 5.18
- Daily Feed DM Consumption, Period [1, 15]: 1.12 kilograms
- Daily Gain, Period [1, 15]: .22 kilograms
- Feed DM/Gain, Period [1, 15]: 5.09
- Daily Feed DM Consumption, Period [1, 16]: 1.29 kilograms
- Feed DM/Gain, Period [1, 16]: 8.06
- Daily Gain, Period ([1]; Oral, 30 ppm): .14 kilograms
- Weight, Final ([1]; Oral, 30 ppm): 43.0 kilograms
- Weight, Initial ([1]; Oral, 30 ppm (baseline)): 28.1 kilograms
- Daily Feed DM Consumption, Cumulative ([1]; Oral, 30 ppm, Day 0-14): 1.05 kilograms
- Daily Feed DM Consumption, Period ([1]; Oral, 30 ppm, Day 0-14): 1.05 kilograms
- Daily Gain, Cumulative ([1]; Oral, 30 ppm, Day 0-14): .27 kilograms
- Daily Gain, Period ([1]; Oral, 30 ppm, Day 0-14): .27 kilograms
- Feed DM/Gain, Cumulative ([1]; Oral, 30 ppm, Day 0-14): 3.89
- Feed DM/Gain, Period ([1]; Oral, 30 ppm, Day 0-14): 3.89
- Daily Feed DM Consumption, Cumulative ([1]; Oral, 30 ppm, Day 0-28): 1.10 kilograms
- Daily Gain, Cumulative ([1]; Oral, 30 ppm, Day 0-28): .24 kilograms
- Feed DM/Gain, Cumulative ([1]; Oral, 30 ppm, Day 0-28): 4.58
- Daily Feed DM Consumption, Cumulative ([1]; Oral, 30 ppm, Day 0-42): 1.12 kilograms
- Daily Gain, Cumulative ([1]; Oral, 30 ppm, Day 0-42): .23 kilograms
- Feed DM/Gain, Cumulative ([1]; Oral, 30 ppm, Day 0-42): 4.87
- Daily Feed DM Consumption, Cumulative ([1]; Oral, 30 ppm, Day 0-56): 1.14 kilograms
- Daily Gain, Cumulative ([1]; Oral, 30 ppm, Day 0-56): .23 kilograms
- Feed DM/Gain, Cumulative ([1]; Oral, 30 ppm, Day 0-56): 4.96
- Daily Feed DM Consumption, Cumulative ([1]; Oral, 30 ppm, Day 0-70): 1.16 kilograms
- Daily Gain, Cumulative ([1]; Oral, 30 ppm, Day 0-70): .21 kilograms
- Feed DM/Gain, Cumulative ([1]; Oral, 30 ppm, Day 0-70): 5.52
- Daily Feed DM Consumption, Period ([1]; Oral, 30 ppm, Day 15-28): 1.16 kilograms
- Daily Gain, Period ([1]; Oral, 30 ppm, Day 15-28): .20 kilograms
- Feed DM/Gain, Period ([1]; Oral, 30 ppm, Day 15-28): 5.80
- Daily Feed DM Consumption, Period ([1]; Oral, 30 ppm, Day 29-42): 1.17 kilograms
- Daily Gain, Period ([1]; Oral, 30 ppm, Day 29-42): .22 kilograms
- Feed DM/Gain, Period ([1]; Oral, 30 ppm, Day 29-42): 5.32
- Daily Feed DM Consumption, Period ([1]; Oral, 30 ppm, Day 43-56): 1.19 kilograms
- Daily Gain, Period ([1]; Oral, 30 ppm, Day 43-56): .23 kilograms
- Feed DM/Gain, Period ([1]; Oral, 30 ppm, Day 43-56): 5.17
- Daily Feed DM Consumption, Period ([1]; Oral, 30 ppm, Day 57-70): 1.26 kilograms
- Feed DM/Gain, Period ([1]; Oral, 30 ppm, Day 57-70): 9.00
- organ weight variation, suprarenal gland ([2]; controls +0.011): +0.011%
- organ weight variation, heart ([2]; controls +0.257): +0.304%
- organ weight variation, lung ([2]; controls +0.598): +0.675%
- organ weight variation, kidney ([2]; controls +0.65): +0.71%
- organ weight variation, liver ([2]; controls +3.22): +3.63%
- Feed Conversion ([3]; feed 2.5 ppm, D + 7): 1.67
- Weight Gain ([3]; feed 2.5 ppm, D + 7): 256 g
- Feed Conversion ([3]; feed 2.5 ppm, D + 14): 1.98
- Weight Gain ([3]; feed 2.5 ppm, D + 14): 526 g
- Feed Conversion ([3]; feed 2.5 ppm, D + 21): 1.70
- Weight Gain ([3]; feed 2.5 ppm, D + 21): 1075 g
- Mortality ([3]; feed 2.5 ppm): 1.4
- Feed Conversion ([3]; feed 5.0 ppm, D + 7): 1.65
- Weight Gain ([3]; feed 5.0 ppm, D + 7): 262 g
- Feed Conversion ([3]; feed 5.0 ppm, D + 14): 2.02
- Weight Gain ([3]; feed 5.0 ppm, D + 14): 523 g
- Feed Conversion ([3]; feed 5.0 ppm, D + 21): 1.71
- Weight Gain ([3]; feed 5.0 ppm, D + 21): 1027 g
- Mortality ([3]; feed 5.0 ppm): .8
- F/G ([4]; feed 1 ppm, Day 35): 1.60
- Weight Gain ([4]; feed 1 ppm, Day 35): 1379 g
- F/G ([4]; feed 1 ppm, Day 44): 1.72
- Weight Gain ([4]; feed 1 ppm, Day 44): 1917 g
- F/G ([4]; feed 2.5 ppm, Day 35): 1.55
- Weight Gain ([4]; feed 2.5 ppm, Day 35): 1431 g
- F/G ([4]; feed 2.5 ppm, Day 44): 1.69
- Weight Gain ([4]; feed 2.5 ppm, Day 44): 1961 g
- F/G ([4]; feed 5 ppm, Day 35): 1.61
- Weight Gain ([4]; feed 5 ppm, Day 35): 1381 g
- F/G ([4]; feed 5 ppm, Day 44): 1.72
- Weight Gain ([4]; feed 5 ppm, Day 44): 1929 g
- F/G ([4]; feed 10 ppm, Day 35): 1.60
- Weight Gain ([4]; feed 10 ppm, Day 35): 1356 g
- F/G ([4]; feed 10 ppm, Day 44): 1.74
- Weight Gain ([4]; feed 10 ppm, Day 44): 1883 g
- F/G ([4]; feed 20 ppm, Day 35): 1.61
- Weight Gain ([4]; feed 20 ppm, Day 35): 1364 g
- F/G ([4]; feed 20 ppm, Day 44): 1.72
- Weight Gain ([4]; feed 20 ppm, Day 44): 1901 g
- F/G ([4]; feed 40 ppm, Day 35): 1.63
- Weight Gain ([4]; feed 40 ppm, Day 35): 1334 g
- F/G ([4]; feed 40 ppm, Day 44): 1.72
- Weight Gain ([4]; feed 40 ppm, Day 44): 1898 g
- F/G ([4]; feed 60 ppm, Day 35): 1.57
- Weight Gain ([4]; feed 60 ppm, Day 35): 1334 g
- F/G ([4]; feed 60 ppm, Day 44): 1.72
- Weight Gain ([4]; feed 60 ppm, Day 44): 1875 g
- improvement of average daily gain as compared with controls [5]: about 10%
- improvement of feed-to-gain ratio as compared with controls [5]: about 4%
- average daily gain (ADG) ([5]; control 0.867): 0.958 kg
- average daily feed consumption (ADF) ([5]; control 2.76): 2.96 kg
- feed-to-gain ratio (F/G) ([5]; control 3.18): 3.03
- electrocardiographic variations compared to the controls [6]: no electrocardiographic variations
